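Test compounds were applied to cells in 96-well plates for 48 hours at 5 doses. Abbreviation: GI50, concentration required for 50% inhibition of growth.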 Activity calls are given as the source filed them. Cut-off read from the data, not from the text of the source: active = GI50 up to about 1.1 µM and inactive = higher.
How the values were obtained:
Experiment in all cases: DTP human tumour cell line panel, 48 h
A498 = system: A498
NCI-H522 = system: NCI-H522
SF-268 = system: SF-268
OVCAR-5 = system: OVCAR-5
CAKI-1 = system: CAKI-1
K562 = system: K562
CCRF-CEM = system: CCRF-CEM
RPMI-8226 = system: RPMI-8226
SN12C = system: SN12C
RXF 393 = system: RXF 393
SK-OV-3 = system: SK-OV-3
SF-539 = system: SF-539
ACHN = system: ACHN
OVCAR-8 = system: OVCAR-8
HOP-62 = system: HOP-62
HOP-92 = system: HOP-92

Compound	GI50 (A498)	GI50 (NCI-H522)	GI50 (SF-268)	GI50 (OVCAR-5)	GI50 (CAKI-1)	GI50 (K562)	GI50 (CCRF-CEM)	GI50 (RPMI-8226)	GI50 (SN12C)	GI50 (RXF 393)	GI50 (SK-OV-3)	GI50 (SF-539)	GI50 (ACHN)	GI50 (OVCAR-8)	GI50 (HOP-62)	GI50 (HOP-92)
Cc1nn(-c2ccccc2)c(S)c1C(=O)c1ccccc1	21 µM (inactive)	36.6 µM (inactive)	51.1 µM (inactive)	62.2 µM (inactive)	> 100 µM (inactive)	39.8 µM (inactive)	20.5 µM (inactive)	19.1 µM (inactive)	21.2 µM (inactive)	3.41 µM (inactive)	> 100 µM (inactive)	40.7 µM (inactive)	39.9 µM (inactive)	14.9 µM (inactive)	–	–
CC(C)(C)OC(=O)N[C@H]1CC(O)c2ccccc2N(CC(=O)O)C1=O (some centres not stated)	–	> 100 µM (inactive)	> 100 µM (inactive)	–	> 100 µM (inactive)	–	> 100 µM (inactive)	–	> 100 µM (inactive)	> 100 µM (inactive)	> 100 µM (inactive)	> 100 µM (inactive)	> 100 µM (inactive)	> 100 µM (inactive)	> 100 µM (inactive)	> 100 µM (inactive)
N=C(N)/N=C(/C=C/c1ccccc1)CC1OC(=O)c2ccccc21 (configuration not stated)	> 100 µM (inactive)	> 100 µM (inactive)	61.1 µM (inactive)	–	> 100 µM (inactive)	> 100 µM (inactive)	86.9 µM (inactive)	> 100 µM (inactive)	> 100 µM (inactive)	> 100 µM (inactive)	–	> 100 µM (inactive)	> 100 µM (inactive)	> 100 µM (inactive)	> 100 µM (inactive)	–
COc1ccc(NC(=O)C2=CC(=O)c3ccc(O)cc3C2=O)c(OC)c1	> 100 µM (inactive)	–	> 100 µM (inactive)	> 100 µM (inactive)	> 100 µM (inactive)	> 100 µM (inactive)	> 100 µM (inactive)	> 100 µM (inactive)	> 100 µM (inactive)	> 100 µM (inactive)	–	> 100 µM (inactive)	> 100 µM (inactive)	> 100 µM (inactive)	> 100 µM (inactive)	> 100 µM (inactive)
CC12Oc3ccc4ccccc4c3CC1Cc1c(ccc3ccccc13)O2 (configuration not stated)	–	70 µM (inactive)	> 100 µM (inactive)	> 100 µM (inactive)	48 µM (inactive)	–	–	–	–	27.2 µM (inactive)	–	60.4 µM (inactive)	> 100 µM (inactive)	49.7 µM (inactive)	53 µM (inactive)	0.124 µM (active)
COc1ccc2c(c1)[n+]([O-])c(C(=O)C/C(=N/OCCCc1ccccc1)C(=O)NC13CC4CC(CC(C4)C1)C3)c(C)[n+]2[O-]	> 100 µM (inactive)	> 100 µM (inactive)	> 100 µM (inactive)	> 100 µM (inactive)	> 100 µM (inactive)	82.8 µM (inactive)	54.8 µM (inactive)	> 100 µM (inactive)	> 100 µM (inactive)	–	> 100 µM (inactive)	> 100 µM (inactive)	> 100 µM (inactive)	> 100 µM (inactive)	> 100 µM (inactive)	–
C/C=C1\CCC2c3[nH]c4ccccc4c3CCN2C1 (configuration not stated)	> 100 µM (inactive)	83.8 µM (inactive)	> 100 µM (inactive)	–	> 100 µM (inactive)	43.6 µM (inactive)	> 100 µM (inactive)	–	> 100 µM (inactive)	66.4 µM (inactive)	> 100 µM (inactive)	> 100 µM (inactive)	> 100 µM (inactive)	> 100 µM (inactive)	> 100 µM (inactive)	26.3 µM (inactive)
CSc1nc2c(c(O)c(C)c(=O)n2C2OCC(OC(C)=O)C(OC(C)=O)C2OC(C)=O)c(=O)n1C (configuration not stated)	> 100 µM (inactive)	> 100 µM (inactive)	> 100 µM (inactive)	> 100 µM (inactive)	> 100 µM (inactive)	> 100 µM (inactive)	> 100 µM (inactive)	> 100 µM (inactive)	> 100 µM (inactive)	–	> 100 µM (inactive)	> 100 µM (inactive)	> 100 µM (inactive)	> 100 µM (inactive)	> 100 µM (inactive)	> 100 µM (inactive)
Cc1cc(=O)oc2cc3c(cc12)Oc1ccccc1O3	> 100 µM (inactive)	–	38.3 µM (inactive)	> 100 µM (inactive)	–	> 10 µM (inactive)	> 10 µM (inactive)	> 100 µM (inactive)	> 100 µM (inactive)	> 100 µM (inactive)	99.8 µM (inactive)	18.1 µM (inactive)	> 100 µM (inactive)	42.7 µM (inactive)	> 100 µM (inactive)	> 100 µM (inactive)
Cc1cc2c(C)n(Cc3ccc(Cl)cc3Cl)nc2c(C(=O)O)c1C	–	–	> 100 µM (inactive)	> 100 µM (inactive)	–	–	> 100 µM (inactive)	> 100 µM (inactive)	63.4 µM (inactive)	> 100 µM (inactive)	> 100 µM (inactive)	> 100 µM (inactive)	> 100 µM (inactive)	> 100 µM (inactive)	> 100 µM (inactive)	42.9 µM (inactive)
C1=CC2SSSC2C1 (configuration not stated)	–	> 100 µM (inactive)	> 100 µM (inactive)	> 100 µM (inactive)	–	> 100 µM (inactive)	> 100 µM (inactive)	> 100 µM (inactive)	> 100 µM (inactive)	> 100 µM (inactive)	> 100 µM (inactive)	> 100 µM (inactive)	> 100 µM (inactive)	> 100 µM (inactive)	> 100 µM (inactive)	> 100 µM (inactive)
S=C(N/N=C/c1ccccc1)NC1CC(c2ccccc2)Oc2ccccc21 (configuration not stated)	–	> 100 µM (inactive)	51.4 µM (inactive)	> 100 µM (inactive)	28.4 µM (inactive)	15.2 µM (inactive)	> 10 µM (inactive)	–	> 100 µM (inactive)	–	11.7 µM (inactive)	38.3 µM (inactive)	> 10 µM (inactive)	48 µM (inactive)	–	2.17 µM (inactive)
CCC1CC(C)=CCN1S(=O)(=O)c1ccc(C)cc1 (configuration not stated)	42.6 µM (inactive)	16.6 µM (inactive)	15.9 µM (inactive)	28 µM (inactive)	6.9 µM (inactive)	7.5 µM (inactive)	4.9 µM (inactive)	3.89 µM (inactive)	9.57 µM (inactive)	–	24.5 µM (inactive)	14.5 µM (inactive)	37 µM (inactive)	36.5 µM (inactive)	21.3 µM (inactive)	–
Cc1ccccc1C1SCc2nc3ccccc3n21 (configuration not stated)	–	21.8 µM (inactive)	> 100 µM (inactive)	3.38 µM (inactive)	> 100 µM (inactive)	3.77 µM (inactive)	> 100 µM (inactive)	5.85 µM (inactive)	> 100 µM (inactive)	> 100 µM (inactive)	> 100 µM (inactive)	70.1 µM (inactive)	> 100 µM (inactive)	> 100 µM (inactive)	–	2.43 µM (inactive)
CN/C(=N\C#N)N(Cc1ccccc1)Cc1ccccc1	> 100 µM (inactive)	> 100 µM (inactive)	> 100 µM (inactive)	> 100 µM (inactive)	> 100 µM (inactive)	–	> 100 µM (inactive)	> 100 µM (inactive)	> 100 µM (inactive)	–	> 100 µM (inactive)	> 100 µM (inactive)	> 100 µM (inactive)	> 100 µM (inactive)	> 100 µM (inactive)	> 100 µM (inactive)
COc1cc(CC2c3cc(OC)c(OC)cc3CCN2C)c(C(=O)O)cc1OC (configuration not stated)	> 100 µM (inactive)	> 100 µM (inactive)	> 100 µM (inactive)	> 100 µM (inactive)	–	> 100 µM (inactive)	> 100 µM (inactive)	> 100 µM (inactive)	> 100 µM (inactive)	> 100 µM (inactive)	> 100 µM (inactive)	> 100 µM (inactive)	> 100 µM (inactive)	> 100 µM (inactive)	> 100 µM (inactive)	> 100 µM (inactive)
COc1ccc(CCN(C)C2CCC(C#N)(c3ccc(OC)c(OC)c3)CC2)cc1OC (configuration not stated)	–	> 10 µM (inactive)	> 100 µM (inactive)	> 100 µM (inactive)	–	39.1 µM (inactive)	> 100 µM (inactive)	54 µM (inactive)	> 100 µM (inactive)	> 100 µM (inactive)	> 100 µM (inactive)	> 100 µM (inactive)	> 100 µM (inactive)	> 100 µM (inactive)	> 100 µM (inactive)	38.9 µM (inactive)
NN/C(Cc1ccccc1)=N/NC(N)=S	> 100 µM (inactive)	14.6 µM (inactive)	> 100 µM (inactive)	> 100 µM (inactive)	–	> 100 µM (inactive)	54.1 µM (inactive)	> 100 µM (inactive)	–	> 100 µM (inactive)	> 100 µM (inactive)	> 100 µM (inactive)	62.5 µM (inactive)	> 100 µM (inactive)	> 100 µM (inactive)	> 100 µM (inactive)
CCOC(=O)/C(=C/c1ccccc1)N(CC)CC	> 100 µM (inactive)	> 100 µM (inactive)	> 100 µM (inactive)	> 100 µM (inactive)	> 100 µM (inactive)	> 100 µM (inactive)	62.2 µM (inactive)	> 100 µM (inactive)	> 100 µM (inactive)	–	> 100 µM (inactive)	> 100 µM (inactive)	> 100 µM (inactive)	> 100 µM (inactive)	> 100 µM (inactive)	> 100 µM (inactive)
O=c1ccn(/C=C/C(O)C(O)CO)c(=O)[nH]1 (configuration not stated)	> 100 µM (inactive)	> 100 µM (inactive)	> 100 µM (inactive)	> 100 µM (inactive)	> 100 µM (inactive)	> 100 µM (inactive)	> 100 µM (inactive)	> 100 µM (inactive)	> 100 µM (inactive)	–	> 100 µM (inactive)	> 100 µM (inactive)	> 100 µM (inactive)	> 100 µM (inactive)	> 100 µM (inactive)	–

Reference: ChEMBL document CHEMBL1201862, “PubChem BioAssay data set” (2004)
